Assay results as given in patent US7390915B1, “Phosphine transition metal complex having ferrocene skeleton, process for making the same, and anti-cancer agent” (Nippon Chemical Industrial Co., Ltd, priority 2007, dated 2008).

What follows are substances tested on HL-60 (human acute myeloid leukemia cells) (assay: Evaluation of anti-cancer activity: HL-60 cell survival by modified Mosmann (MTT) method). Conditions: read-out: IC50 (concentration of inhibitor that inhibits cell growth to 50%), HL-60 cells, 24 hours culture with compound, average of at least three experiments.
Format: cell-based
Protocol: <Evaluation of Anti-Cancer Activity>
HL-60 (human acute myeloid leukemia cells) as the cancerous cells was cultured under a 5% CO2 atmosphere in a wet incubator at 37° C. in a Roswell Park Memorial Institute medium (RPMI 1640) supplemented with 10% fetal bovine serum and 1% antibiotic and antimycotic.
The cells were washed with PBS and counted. A 1×10^6 cells/mL suspension was then prepared using the same medium. The suspension was added to a sterilized 96-well microplate at a density of 50000 cells per well.
The number of survived cells was then evaluated by a modified Mosmann method (T. Mosmann, J. Immunol. Method (1983) 65, 55-63). That is, a solution of a tetrazolium salt (3,[4,5-dimethylthiazol-2-yl]-2,5-diphenyltetrazolium bromide (MTT)) was added, and the culture was continued for 3 hours under the same conditions. Formazan crystals generated by enzymatic activity of the mitochondria in the cells were dissolved in 0.04 mol HCl/isopropyl alcohol and the absorbance at 595 nm was measured using a microplate reader (Bio-Rad 550). In order to eliminate the background, the absorbance at 630 nm was measured and subtracted from the observed absorbance at 595 nm. […] Note that in calculating the IC50 value, the average of values of at least three experiments conducted under the same conditions was used.
With “Bis((R)-1-((S)-2-(dicyclohexylphosphino)ferrocenyl)ethyldicyclohexylphosphine)gold(I)chloride [Example 1]” the IC50 was 19.2 µM. With “Bis((R)-1-((S)-2-(dicyclohexylphosphino)ferrocenyl)ethyldiphenylphosphine)gold(I)chloride [Example 3]” the IC50 was 7.92 µM. Work on “Bis((R)-1-((S)-2-(diphenylphosphino)ferrocenyl)ethyldicyclohexylphosphine)gold(I)chloride [Example 2]” yielded an IC50 of 8.69 µM. With “Bis((S)-1-((R)-2-(dicyclohexylphosphino)ferrocenyl)ethyldiphenylphosphine)gold(I)chloride [Example 4]” the IC50 was 9.21 µM. Substance “bis(1,1′-bis-(diphenylphosphino)-2,2-bis-[(S)-4-isobutyl-2-yl]ferrocene)digold(I)dichloride [Example 7]” has an IC50 of 2.1 µM. “bis(1,1′-bis-(diphenylphosphino)-2,2-bis-[(S)-4-isopropyl-2-yl]ferrocene)digold(I)dichloride [Example 5]” was tested, and the IC50 was 0.803 µM. With “bis(1,1′-bis-(diphenylphosphino)-2,2-bis-[(S)-4-sec-butyl-2-yl]ferrocene)digold(I)dichloride [Example 8]” the IC50 was 3.54 µM. Substance “bis(1,1′-bis-(diphenylphosphino)-2,2-bis-[(S)-4-tert-butyl-2-yl]ferrocene)digold(I)dichloride [Example 6]” has an IC50 of 2.31 µM.
